Source: patent publication US10150787B2, “TC-PTP inhibitors as APC activators for immunotherapy” (THE ROYAL INSTITUTION FOR THE ADVANCEMENT OF LEARNING / …, priority 2014, dated 2018)

Experiments:
TC-PTP = TC-PTP (Homo sapiens (Human), UniProt P17706); assay: Enzyme Assay for TC-PTP; format: biochemical; details: inhibition of TC-PTP enzymatic activity
Procedure: 1) Enzyme Assay for TC-PTP
• Assay buffer: 50 mM Bis-Tris (pH=6.3) • 2 mM EDTA • 5 mM N,N′-dimethyl-N,N′-bis(mercaptoacetyl)hydrazine (DMH) • Substrate: 10 mM fluorescein diphosphate (FOP) store at −20° C. (also can use 10 mM DiFMUP) • Enzyme dilution buffer: 50 mM Bis-Tris (pH=6.3) • 2 mM EDTA • 5 mM DMH • 20% (v/v) glycerol • 0.01% Triton X-100
The assay was carried out at room temperature in 96 well plates. The reaction mixture in 170 μl contained 50 mM Bis-Tris (pH=6.3), 2 mM EDTA, 5 mM N,N′-dimethyl-N,N′bis(mercaptoacetyl)hydrazine (DMH) and 10 μM fluorescein diphosphare (FDP) or 6,8-difluoro-4-methylumbelliferyl phosphate (DiFMUP). 10 μl of 10 concentrations (serial dilution) of the test compound (inhibitor) dissolved in DMSO or DMSO alone for control was added to each well and the plate was mixed for 2 min. The reaction was initiated by adding 20 μl of diluted TC-PTP (50 nM for FDP, 0.5 nM for DiFMUP in 50 mM Bis/Tris (pH=6.3), 2 mM EDTA, 5 mM DMH, 20% glycerol and 0.01% Triton X-100. The phosphatase activity was followed by monitoring the appearance of the fluorescent product fluorescein monophosphate (FMP) or 6,8-difluoro-7-hydroxyl-4-coumarin (DiFMU) continuously for 15-30 min, using the Spectromax Gemini fluorescent plate reader ([…]) with excitation of 440 nm and emission at 530 nm (cutoff filter at 525 nm) for FDP and excitation at 360 nm and emission at 450 nm (cutoff filter at 435 nm) for DiFMUP. All the assays were done at least in duplicate. The initial rate of FMP or DiFMU formation is plotted against the concentration of inhibitor and the data was fitted to 4-parameter equation and the inflection point of the fit is the IC50.

monocyte-derived DCs = assay: Mouse Dendritic Cell Assay (IL-12 production); format: cell-based; details: for % increase in IL-12 production: 24 h IL-12 production following 6 days of DC incubation and maturation in the presence of 32 μM of test compound vs vehicle-treated cells; for potency in the IL-12 release assay (in words): IL-12 release assay shown in Example 12
Procedure: Mouse bone marrow cells were flushed from the femur and tibia into RPMI (supplemented with 10% FBS, gentamicin, HEPES, non-essential amino acids) using a syringe equipped with a 23 gauge needle. Clumps were dispersed by gently passing the cell suspension several times through the syringe. Any remaining clumps of cells and debris were removed by passing cell suspension through a 70 μM nylon strainer. The suspension was centrifuged (300×g for 10 mins), the supernatant was discarded and the cells were resuspended in 5 ml of red cell lysis buffer (SIGMA). The cells were counted and mouse monocytes cells (CD11b+) were isolated according to the instructions for positive selection of CD11 b cells (Stemcell technologies). The cells were then resuspended in RPMI media supplemented with 10% FBS, gentamicin, Hepes and non-essential aminoacids (aa) and treated with 40 ng/ml of recombinant mouse GM-CSF and IL-4 (Peprotech). Mouse monocytes were plated at 1×10^6 cells/mL. The cells were incubated for 6 days at 37° C., 5% CO2 in a humidified incubator in the presence of different concentrations of the compounds (0-32 μM). The media was changed every three days by removing half of the media from the plate and replenishing with the same volume of fresh media supplemented with cytokines and the test compounds at the same concentrations.
Immature monocyte-derived DCs may be incubated with a DC maturation cocktail containing the test compounds and incubated for an additional 24-72 hours. There are many DC maturation cocktails identified in the literature, with the “gold standard” consisting of 10 ng/ml TNF-α, 10 ng/ml IL-1β, 1000 units/ml IL-6 and 1 μg/mL PGE2. Alternatively, MPLA (10 μg/mL) and IFNγ (500 U/ml, Peprotech, for clinical research) has also been used. For the data shown in Example 12, the immature monocyte-derived DCs were cultured with LPS (1 μg/mL)) for 48 hours to induce maturation. Test compounds were included in the maturation cocktail at concentrations varying between 1 and 32 μM.
(§1) Characteristics of the mature DCs can be determined by a number of assays including flow cytometry analysis of the surface markers expressed on DCs, the cytokine production profile of activated DCs, antigen presentation assay and in vivo experiments to assess the DC-mediated antitumor response and cancer immunity.

[1] = tested on: dendritic cells derived from monocytes taken from human pancreatic cancer patients; assay: Human Dendritic Cell Assay (IL-12 release); format: cell-based; details: DCs matured in the presence of the compound vs the same cells matured without it
Procedure: A sample of human blood was diluted with an equal volume of PBS plus 2% FBS. The diluted blood was layered on top of Lymphoprep (Stemcell technologies) being careful to minimize the mixing of the blood with Lymphoprep. The mixture was centrifuged at 800×g for 20 minutes at room temperature with brake off. If the blood had been stored for more than 2 hours, the centrifugation time was increased to 30 minutes. The upper plasma layer was then removed and discarded without disturbing the plasma-lymphoprep interface. The mononuclear cell layer (PMBC) at the plasma-lymphoprep interface was removed and retained without disturbing the erythrocyte/granulocyte pellet. The mononuclear cells were washed once with media and the CD14+ cells were isolated according to the instructions for the positive selection of CD14+ kit (Stemcell technologies). The resulting CD14+ cells were cultured in PromoCell monocyte attachment media (PromoCell). Cells were plated at 0.5×10^6 cells/cm^2 and incubated for 1 h at 5% CO2 and 37° C. in a humidified incubator. […]
as §1

EG7 lymphoma cells = assay: Mouse Syngeneic Tumor Model, treated with inhibitor-activated mature dendritic cells; format: in vivo; details: tumor volume in mice 28 days following a single treatment of mature dendritic cells activated by the compound; Example 5 vs Example 6
Description: A novel dual reporter (GFP & luciferase) MSCV based plasmid was creating by subcloning from two commercially available constructs (addgene 19360: pLenti pgk and addgene 18751: MSCV-IRES-GFP). This construct was used to generate retrovirus for infection of EG7 lymphoma cells (ATCC#CRL-2133). EG7-ova expressing cells are a commonly used model for T cell lymphoma engineered to express the ovalbumin antigen making them useful in immunological and drug discovery applications. These cells were then GFP sorted at the McGill University Life Sciences Complex flow cytometry core (BD FACscalibur) prior to subcutaneous implantation (5×10^5 cells) in syngeneic C57bl6 mice (Harlan). Tumors were allowed to establish in the mice and then were imaged ten days post implantation (Perkin Elmer IVIS100) and luminescence was quantified using IVIS software. Mice were then treated on day 10 post injection with 2×10^6 ex vivo-derived and inhibitor-treated mature dendritic cells (IP injection) (see ex vivo activation of monocyte derived DC with PTP inhibitor). Ovalbulim was added to DC cultures during maturation at a concentration of 2.5 mg/mL. Following maturation, DCs were harvested by gently resuspending with phosphate-buffered saline to dislodge any loosely attached cells. Cells were then spun down and washed twice with phosphate-buffered saline. […]

Sequence of TC-PTP (P17706 whole entry, species assumed): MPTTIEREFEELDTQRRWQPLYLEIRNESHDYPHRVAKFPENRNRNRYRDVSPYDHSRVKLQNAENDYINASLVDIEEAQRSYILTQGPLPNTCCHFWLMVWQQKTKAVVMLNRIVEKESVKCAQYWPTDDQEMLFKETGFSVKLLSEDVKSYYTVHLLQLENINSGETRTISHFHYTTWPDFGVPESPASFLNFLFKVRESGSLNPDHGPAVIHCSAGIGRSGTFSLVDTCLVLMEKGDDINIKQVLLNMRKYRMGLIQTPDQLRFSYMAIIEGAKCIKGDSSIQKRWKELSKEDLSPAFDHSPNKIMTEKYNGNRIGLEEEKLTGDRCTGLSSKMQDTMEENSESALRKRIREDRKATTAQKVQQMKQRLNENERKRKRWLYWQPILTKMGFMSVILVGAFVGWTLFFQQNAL

| Compound | IC50 (TC-PTP) | % increase in IL-12 production (monocyte-derived DCs) | potency in the IL-12 release assay (in words) (monocyte-derived DCs) | release of IL-12 [1] | efficacy at reducing tumor volume (EG7 lymphoma cells) |
| --- | --- | --- | --- | --- | --- |
| N#CCc1cc2cc(C(F)(F)P(=O)(O)O)c(Br)cc2s1 [Ex. 6, ((6-Bromo-2-(Cyanomethyl)Benzo[b]Thiophen-5-yl)Difluoromethyl)Phosphonate] | 370 nM | 60% | less potent | – | – |
| CCOC(=O)c1cc2cc(C(F)(F)P(=O)(O)O)c(Br)cc2s1 [Ex. 1, ((6-Bromo-2-(Ethoxycarbonyl)Benzo[b]Thiophen-5-yl)Difluoromethyl)Phosphonate] | 450 nM | 161% | – | – | – |
| COC(=O)c1cc2cc(Br)c(C(F)(F)P(=O)(O)O)cc2s1 [Ex. 8, ((5-Bromo-2-(Methoxycarbonyl)Benzo[b]Thiophen-6-yl)Difluoromethyl)Phosphonate] | 2900 nM | – | – | – | – |
| N#Cc1cc2cc(C(F)(F)P(=O)(O)O)c(Br)cc2s1 [Ex. 4, ((6-Bromo-2-Cyanobenzo[b]Thiophen-5-yl)Difluoromethyl)Phosphonate] | 1200 nM | 85% | – | – | – |
| CCOC(=O)c1cc2cc(Br)c(C(F)(F)P(=O)(O)O)cc2s1 [Ex. 7, ((5-Bromo-2-(Ethoxycarbonyl)Benzo[b]Thiophen-6-yl)Difluoromethyl)Phosphonate] | 740 nM | 171% | – | greater release of IL-12 | – |
| O=C(O)c1cc2cc(C(F)(F)P(=O)(O)O)c(Br)cc2s1 [Ex. 2, 6-Bromo-5-(Difluoro(Phosphonato)Methyl)Benzo[b]Thiophene-2-Carboxylate] | 260 nM | 143% | – | – | – |
| NC(=O)c1cc2cc(C(F)(F)P(=O)(O)O)c(Br)cc2s1 [Ex. 3, ((6-Bromo-2-Carbamoylbenzo[b]Thiophen-5-yl)Difluoromethyl)Phosphonate] | 280 nM | 130% | – | – | – |
| N#Cc1ccc2cc(Br)c(C(F)(F)P(=O)(O)O)cc2c1 [Ex. 10, [(3-Bromo-7-Cyano-2-Naphthyl)(Difluoro)Methyl]Phosphonate] | 490 nM | 42% | – | – | – |
| O=P(O)(O)C(F)(F)c1cc2cc(CO)sc2cc1Br [Ex. 5, ((6-Bromo-2-(Hydroxymethyl)Benzo[b]Thiophen-5-yl)Difluoromethyl)Phosphonate] | 1500 nM | 144% | potent | – | greater efficacy at reducing tumor volume |
| O=C(O)c1cc2cc(Br)c(C(F)(F)P(=O)(O)O)cc2s1 [Ex. 9, ((5-Bromo-2-(Carboxy)Benzo[b]Thiophen-6-yl)Difluoromethyl)Phosphonate] | 170 nM | – | – | – | – |
